Assay results as given in patent US20190225985A1, “Enhancing Bacillus Thuringiensis CRY Insecticidal Activity With a Chaperone” (Universidad Nacional Autónoma de México, priority 2016, published 2019).
Where two headings read alike, the source gives them in different places.

Experiments:
[1] = test system: Plutella xylostella larvae; format: in vivo; conditions: for effect of Hsp90 on toxicity: protoxin at about 10% mortality, increasing Hsp90, FIG. 1
Procedure: The hsp90 and hsp70 genes from the lepidopteran insect Plutella xylostella and the GroEL gene from Alcaligenes faecalis were cloned into an expression vector for production in E. coli cells. P. xylostella is a pest of cruciferous crops worldwide, is susceptible to Cry1A toxins and has evolved resistance to Cry1Ac and Cry1Ab in field conditions^18. To determine the effect of Hsp90, Hsp70 or GroEL on Cry1Ab and Cry1Ac toxicity, bioassays were performed against P. xylostella larvae using a protoxin concentration that would produce around 10% mortality in the presence of increasing amounts of Hsp90, Hsp70 or GroEL.
Bioassays were performed with 24 third instar larvae of P. xylostella using 24 wells plates. Larval diet was surface contaminated with different concentrations of Cry1A protoxin plus Hsp90 or Hsp70 or protoxin alone without any chaperone. The samples containing protoxin and Hsp90 were previously incubated for 30 min at 37° C. in Hsp90 buffer (1 mM Mg, 1 mMATP, in PBS1X). Each experiment was performed in triplicate (72 larvae per treatment). Mortality was assessed after 7 days. The statistical calculations (mean and standard deviation) and graphics were performed using the Microsoft Excel Program. Negative control diet was surface contaminated with the highest Hsp90 concentration without Cry1A protoxin to test the possible toxic effect of the protein or the buffer itself.
In the case where the LC50 was calculated, increasing concentrations of protoxin plus Hsp90 (in the protein relation indicated in the table) was used to surface contaminate diet in 24-well plates. These experiments were performed in triplicate. Mortality was assessed after 7 days and the effective dose was calculated using Probit analysis (Polo-PC LeOra Software).

Hsp90 = experiment: ELISA binding assay of Hsp90 to Cry toxins; set-up: species or system Plutella xylostella; conditions: for binding of Hsp90 to toxin (ELISA): coated protoxin, serial dilutions of Hsp90, FIG. 4A-E
Procedure: (§1) The binding of Hsp90 or Hsp70 to Cry1Ab and Cry1AbMod protoxins was analyzed by ELISA binding assays. […] More specifically, 50 μl of 40 nM of each protoxin in binding buffer (100 mM carbonate pH 9.5) was used to coat ELISA 96 well plates. ELISA plates were incubated overnight at 4° C. After removing the protoxin solution, the plate was blocked with blocking-buffer (1% BSA in PBS 1X) for 1 hr at room temperature. […] The plate was washed three times with washing buffer (PBS 1X) and then 50 μl of a 1/10,000 dilution of anti-polyHistidine-Peroxidase conjugate (Sigma-Aldrich) was added to each well and incubated for 1 hr at 30° C. The reaction was developed with 50 μl of ortophenylenediamine in a substrate buffer (100 mM K3PO4; pH 5) in a final concentration of 1 mg/ml and […] of peroxide oxide. The reaction was stopped by adding 25 μl of HCl, 6N. The plates were read on microtiter plate reader at OD 490 nm.
(§2) Data represent means of 8 wells and each experiment was repeated two times. The statistical calculations (mean and standard deviation) and graphics were performed using the Microsoft Excel Program.

Hsp70 = experiment: ELISA binding assay of Hsp70 to Cry toxins; set-up: species or system Plutella xylostella; conditions: coated protoxin, different concentrations of Hsp70, FIG. 5
Procedure: as §1, §2

[2] = test system: M. sexta brush border membrane vesicles (BBMV); experiment: Oligomerization of Cry1Ab with brush border membrane vesicles in the presence of Hsp90, Western blot; format: biochemical
Procedure: Oligomerization of Cry1Ab. Brush border membrane vesicles (BBMV) were prepared using M. sexta midgut tissues from third instar larvae by the magnesium precipitation method without protease inhibitors^21 and suspended in 50 mM Na2CO3, pH 9, and stored at −70° C. until used. The BBMV protein concentrations were determined with the Lowry DC protein assay (BioRad, Hercules, Calif.) using bovine serum albumin as a standard. Fifteen μg or 30 μg of Hsp90 were incubated with 1 μg Cry1Ab toxin or protoxin in the presence of Hsp90 buffer. Control samples contained Cry1Ab proteins without Hsp90. Cry1Ab oligomerization was analyzed after incubation of 1 μg of Cry1Ab toxin or protoxin with 10 μg of BBMV protein for 1 h at 37° C. in a total volume of […] alkaline buffer, pH 10.5. BBMV were recovered by a 30 min centrifugation at 60,000 rpm at 4° C. The pellet was washed once with 100 μl of alkaline buffer by centrifugation, and suspended in 60 μl of the same buffer. Laemmli sample buffer 4X was added and the sample was incubated three min at 50° C. Samples were separated in 8% SDS-PAGE, electro transferred to PVDF membrane and Cry1Ab proteins were detected by Westernblot as described above.

[3] = test system: Plutella xylostella larvae; conditions: soluble protoxin; taken from reference 16; cited from earlier work
[4] = excess of 500 μg per well of Hsp90

Chain of Hsp90 (as listed by the source): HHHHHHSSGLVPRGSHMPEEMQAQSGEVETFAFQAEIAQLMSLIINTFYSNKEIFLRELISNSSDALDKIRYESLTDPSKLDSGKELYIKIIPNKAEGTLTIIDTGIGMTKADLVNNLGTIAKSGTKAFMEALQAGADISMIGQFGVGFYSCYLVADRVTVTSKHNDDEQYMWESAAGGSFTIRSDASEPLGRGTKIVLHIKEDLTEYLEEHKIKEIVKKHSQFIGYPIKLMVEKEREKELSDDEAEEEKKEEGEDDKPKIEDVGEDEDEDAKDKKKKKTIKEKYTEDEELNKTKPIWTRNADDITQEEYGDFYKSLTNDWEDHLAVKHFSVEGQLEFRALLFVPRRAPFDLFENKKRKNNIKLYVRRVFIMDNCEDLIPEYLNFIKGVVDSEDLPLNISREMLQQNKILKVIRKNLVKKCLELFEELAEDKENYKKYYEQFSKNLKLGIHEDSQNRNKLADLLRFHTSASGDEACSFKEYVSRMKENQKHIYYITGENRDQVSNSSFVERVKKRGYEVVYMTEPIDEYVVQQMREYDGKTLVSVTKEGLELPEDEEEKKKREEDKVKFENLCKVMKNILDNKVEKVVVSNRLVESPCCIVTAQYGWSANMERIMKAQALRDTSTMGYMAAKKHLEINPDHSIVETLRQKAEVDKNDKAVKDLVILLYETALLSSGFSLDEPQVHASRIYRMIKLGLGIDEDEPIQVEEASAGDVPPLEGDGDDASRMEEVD
Chain of Hsp70 (as listed by the source): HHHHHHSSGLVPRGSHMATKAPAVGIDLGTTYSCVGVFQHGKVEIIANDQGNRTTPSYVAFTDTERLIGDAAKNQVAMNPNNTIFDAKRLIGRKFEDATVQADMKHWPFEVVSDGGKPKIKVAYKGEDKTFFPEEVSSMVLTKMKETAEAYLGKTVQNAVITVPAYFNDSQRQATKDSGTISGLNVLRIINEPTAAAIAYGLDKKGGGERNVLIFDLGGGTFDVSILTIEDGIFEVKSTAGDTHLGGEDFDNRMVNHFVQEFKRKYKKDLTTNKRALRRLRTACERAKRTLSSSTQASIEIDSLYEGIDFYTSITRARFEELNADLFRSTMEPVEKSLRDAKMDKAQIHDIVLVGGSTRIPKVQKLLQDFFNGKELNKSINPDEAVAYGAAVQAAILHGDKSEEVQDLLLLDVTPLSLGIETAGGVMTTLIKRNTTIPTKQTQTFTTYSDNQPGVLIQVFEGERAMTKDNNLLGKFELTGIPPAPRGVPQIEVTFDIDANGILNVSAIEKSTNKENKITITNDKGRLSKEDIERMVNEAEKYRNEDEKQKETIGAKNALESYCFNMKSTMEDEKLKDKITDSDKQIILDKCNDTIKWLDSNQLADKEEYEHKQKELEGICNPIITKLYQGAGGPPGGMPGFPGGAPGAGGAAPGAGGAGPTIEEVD

| Substance | mortality ([1]; 200 ng per well of Hsp90) | mortality [1, 4] | effect of Hsp90 on toxicity [1] | binding of Hsp90 to toxin (ELISA) (Hsp90) | binding of Hsp70 to toxin (ELISA) (Hsp70) | yield of the 250 kDa Cry1Ab oligomer ([2]; from Cry1Ab protoxin) | yield of the 250 kDa Cry1Ab oligomer ([2]; from Cry1Ab toxin) | LC50 [3] | mortality ([1]; 100 ng per well of Hsp70) | mortality ([1]; GroEL 100 ng per well) | mortality ([1]; excess of 200 μg per well of GroEL) | mortality ([1]; excess of 200 μg per well of Hsp70) | effect of GroEL on toxicity ([1]; increasing GroEL, FIG. 3) | effect of Hsp70 on toxicity ([1]; increasing Hsp70, FIG. 2) | binding of Hsp90 to Cry1Ac (Hsp90; 100 nM Hsp90, absence of ATP (FIG. 4F lane 2)) |
| --- | --- | --- | --- | --- | --- | --- | --- | --- | --- | --- | --- | --- | --- | --- | --- |
| Cry1Ab | 80% | 100% | enhanced in an Hsp90 concentration dependent manner | bound | bound | significantly enhanced | significantly enhanced | 4.69 ng/well | – | – | – | – | – | – | – |
| Cry1Ac | 80% | 100% | enhanced in an Hsp90 concentration dependent manner | bound | bound | – | – | 0.71 ng/well | 80% | 80% | 100% | 100% | enhanced in concentration dependent manner | enhanced in an Hsp70 concentration dependent manner | significantly reduced |
